Patent US5059624A, “Guanidine derivatives having hypotensive activity, composition containing them and process for obtaining them” (Consiglio Nazionale Delle Ricerche, priority 1988, dated 1991)
Where two headings read alike, the source gives them in different places.

Tests used:
[1] = Lethal dose 50 (LD50) through i.p. route in mice; settings: mouse, in vivo, ip
Method: The lethal dose 50 (LD50) of guanido-I through i.p. route in mice turned out to be 57 mg±3.6 per kg.
The lethal dose 50 (LD50) of the diguanido-II through i.p. route in mice, turned out to be 7 mg±0.6 per kg.

cardiovascular responses = experiment: Interaction and pretreatment experiments with diguanido-II (cardiovascular and respiratory responses); assay type: in vivo

Method for male Wistar rats: In order to check its activity, diguanido-II was dissolved in a 0.9 % sodium chloride solution and administered through "rapid" i.v. route in male Wistar rats, under general anaesthesia obtained by means of 10% ethyl urethan (i ml/hg).
The active ingredients called guanido-III, -IV, -V, as well as agmatine and galegine, were also tested, after having been administered through "rapid" i.v. route in male Wistar rats (weighing average 280±5 g) under general anaesthesia obtained by means of 10% ethyl uretan (1 ml/hg, i.p.). The general experimental conditions were exactly the same as previously mentioned for guanido-I and diguanido-II, so that the cardiovascular and respiratory effects could be compared.
The parameters measured are as follows: systolic and diastolic systemic arterial pressure (AP), heart rate (HR), maximum rate of increase in the left ventricular isovolumetric pressure (dp/dt), respiratory frequency (RF) and tidal volume (TV). The doses (in μg/kg body weight, referred to the active substance) varied from 50 μg/kg to 6,400 μg/kg (ratio=2.0); in some cases higher does have been employed.

COc1ccc([C@@H]2[C@@H](C(=O)NCCCCNC(=N)NCC=C(C)C)[C@@H](C(=O)NCCCCNC(=N)NCC=C(C)C)[C@@H]2c2ccc(OC)c(OC)c2)cc1OC [diguanido-II]
LD50 [1]: 7 mg/kg | Δ AF (male Wistar rats; 50 μg/kg i.v.): +18.8 ± 3.40 ml/min | Δ AF % (male Wistar rats; 50 μg/kg i.v.): +43 ± 3% | Δ AP % DIAST (male Wistar rats; 50 μg/kg i.v.): +11.0 ± 1.7% | Δ AP % SYST (male Wistar rats; 50 μg/kg i.v.): +15.0 ± 2.7% | Δ AP DIAST (male Wistar rats; 50 μg/kg i.v.): +9.8 ± 1.7 mmHg | Δ AP SYST (male Wistar rats; 50 μg/kg i.v.): +17.2 ± 2.4 mmHg | Δ HR (male Wistar rats; 50 μg/kg i.v.): -9 ± 3 beats/min | Δ HR % (male Wistar rats; 50 μg/kg i.v.): -3 ± 1% | Δ SV (male Wistar rats; 50 μg/kg i.v.): +72.6 ± 5 μl | Δ SV % (male Wistar rats; 50 μg/kg i.v.): +61 ± 5% | Δ TV (male Wistar rats; 50 μg/kg i.v.): +13 ± 3% | Δ dp/dt (male Wistar rats; 50 μg/kg i.v.): +1070 ± 90 mmHg/sec | Δ dp/dt % (male Wistar rats; 50 μg/kg i.v.): +17 ± 4% | Δ AF (male Wistar rats; 100 μg/kg i.v.): +10.8 ± 1.20 ml/min | Δ AF % (male Wistar rats; 100 μg/kg i.v.): +25 ± 1% | Δ AP % DIAST (male Wistar rats; 100 μg/kg i.v.): +11.0 ± 1.1% | Δ AP % SYST (male Wistar rats; 100 μg/kg i.v.): +10.0 ± 2.6% | Δ AP DIAST (male Wistar rats; 100 μg/kg i.v.): +10.2 ± 1.1 mmHg | Δ AP SYST (male Wistar rats; 100 μg/kg i.v.): +11.7 ± 2.5 mmHg | Δ HR (male Wistar rats; 100 μg/kg i.v.): -10 ± 1 beats/min | Δ HR % (male Wistar rats; 100 μg/kg i.v.): -3 ± 1% | Δ SV (male Wistar rats; 100 μg/kg i.v.): +19.8 ± 6 μl | Δ SV % (male Wistar rats; 100 μg/kg i.v.): +17 ± 6% | Δ TV (male Wistar rats; 100 μg/kg i.v.): +4 ± 1% | Δ dp/dt (male Wistar rats; 100 μg/kg i.v.): +1129 ± 82 mmHg/sec | Δ dp/dt % (male Wistar rats; 100 μg/kg i.v.): +18 ± 1% | Δ AF (male Wistar rats; 200 μg/kg i.v.): -13.8 ± 4.20 mL/min | Δ AF % (male Wistar rats; 200 μg/kg i.v.): -32 ± 4% | Δ AP % DIAST (male Wistar rats; 200 μg/kg i.v.): -9.0 ± 1.8% | Δ AP % SYST (male Wistar rats; 200 μg/kg i.v.): -13.0 ± 1.4% | Δ AP DIAST (male Wistar rats; 200 μg/kg i.v.): -13.1 ± 1.8 mmHg | Δ AP SYST (male Wistar rats; 200 μg/kg i.v.): -14.4 ± 1.4 mmHg | Δ HR (male Wistar rats; 200 μg/kg i.v.): -13 ± 4 beats/min | Δ HR % (male Wistar rats; 200 μg/kg i.v.): -4 ± 0.3% | Δ SV (male Wistar rats; 200 μg/kg i.v.): +23.1 ± 6 μl | Δ SV % (male Wistar rats; 200 μg/kg i.v.): +19 ± 6% | Δ TV (male Wistar rats; 200 μg/kg i.v.): +3 ± 2% | Δ dp/dt (male Wistar rats; 200 μg/kg i.v.): +1369 ± 170 mmHg/sec | Δ dp/dt % (male Wistar rats; 200 μg/kg i.v.): +21 ± 4% | Δ AF (male Wistar rats; 400 μg/kg i.v.): -14.3 ± 5.7 mL/min | Δ AF % (male Wistar rats; 400 μg/kg i.v.): -33 ± 6% | Δ AP % DIAST (male Wistar rats; 400 μg/kg i.v.): -18.0 ± 1.4% | Δ AP % SYST (male Wistar rats; 400 μg/kg i.v.): -18.0 ± 1.9% | Δ AP DIAST (male Wistar rats; 400 μg/kg i.v.): -17.0 ± 1.4 mmHg | Δ AP SYST (male Wistar rats; 400 μg/kg i.v.): -19.8 ± 1.9 mmHg | Δ HR (male Wistar rats; 400 μg/kg i.v.): -16 ± 5 beats/min | Δ HR % (male Wistar rats; 400 μg/kg i.v.): -5 ± 2% | Δ SV (male Wistar rats; 400 μg/kg i.v.): -46.2 ± 4 µL | Δ SV % (male Wistar rats; 400 μg/kg i.v.): -39 ± 4% | Δ TV (male Wistar rats; 400 μg/kg i.v.): -51 ± 7% | Δ dp/dt (male Wistar rats; 400 μg/kg i.v.): +2615 ± 181 mmHg/sec | Δ dp/dt % (male Wistar rats; 400 μg/kg i.v.): +41 ± 5% | Δ AF (male Wistar rats; 800 μg/kg i.v.): -25.0 ± 6.1 mL/min | Δ AF % (male Wistar rats; 800 μg/kg i.v.): -57 ± 6% | Δ AP % DIAST (male Wistar rats; 800 μg/kg i.v.): -34.0 ± 3.1% | Δ AP % SYST (male Wistar rats; 800 μg/kg i.v.): -27.0 ± 3.6% | Δ AP DIAST (male Wistar rats; 800 μg/kg i.v.): -31.2 ± 3.1 mmHg | Δ AP SYST (male Wistar rats; 800 μg/kg i.v.): -30.0 ± 3.6 mmHg | Δ HR (male Wistar rats; 800 μg/kg i.v.): -16 ± 5.5 beats/min | Δ HR % (male Wistar rats; 800 μg/kg i.v.): -5 ± 2% | Δ SV (male Wistar rats; 800 μg/kg i.v.): -85.8 ± 9 µL | Δ SV % (male Wistar rats; 800 μg/kg i.v.): -72 ± 9% | Δ TV (male Wistar rats; 800 μg/kg i.v.): -93 ± 8% | Δ dp/dt (male Wistar rats; 800 μg/kg i.v.): +3282 ± 269 mmHg/sec | Δ dp/dt % (male Wistar rats; 800 μg/kg i.v.): +51 ± 7% | Δ AF (male Wistar rats; 1600 μg/kg i.v.): -36.1 ± 4.8 mL/min | Δ AF % (male Wistar rats; 1600 μg/kg i.v.): -83 ± 5% | Δ AP % DIAST (male Wistar rats; 1600 μg/kg i.v.): -47.0 ± 6.8% | Δ AP % SYST (male Wistar rats; 1600 μg/kg i.v.): -36.0 ± 5.3% | Δ AP DIAST (male Wistar rats; 1600 μg/kg i.v.): -43.4 ± 6.8 mmHg | Δ AP SYST (male Wistar rats; 1600 μg/kg i.v.): -41.1 ± 5.3 mmHg | Δ HR (male Wistar rats; 1600 μg/kg i.v.): -30 ± 6 beats/min | Δ HR % (male Wistar rats; 1600 μg/kg i.v.): -9 ± 3% | Δ SV (male Wistar rats; 1600 μg/kg i.v.): -97.4 ± 8 µL | Δ SV % (male Wistar rats; 1600 μg/kg i.v.): -82 ± 8% | Δ TV (male Wistar rats; 1600 μg/kg i.v.): -98 ± 5% | Δ dp/dt (male Wistar rats; 1600 μg/kg i.v.): +3676 ± 264 mmHg/sec | Δ dp/dt % (male Wistar rats; 1600 μg/kg i.v.): +57 ± 6% | Δ AF (male Wistar rats; 3200 μg/kg i.v.): -41.0 ± 6.9 mL/min | Δ AF % (male Wistar rats; 3200 μg/kg i.v.): -94 ± 7% | Δ AP % DIAST (male Wistar rats; 3200 μg/kg i.v.): -58.0 ± 4.2% | Δ AP % SYST (male Wistar rats; 3200 μg/kg i.v.): -42.0 ± 6.5% | Δ AP DIAST (male Wistar rats; 3200 μg/kg i.v.): -53.0 ± 4.2 mmHg | Δ AP SYST (male Wistar rats; 3200 μg/kg i.v.): -47.8 ± 6.5 mmHg | Δ HR (male Wistar rats; 3200 μg/kg i.v.): -41 ± 8 beats/min | Δ HR % (male Wistar rats; 3200 μg/kg i.v.): -12 ± 3% | Δ SV (male Wistar rats; 3200 μg/kg i.v.): -117.2 ± 8 µL | Δ SV % (male Wistar rats; 3200 μg/kg i.v.): -98 ± 8% | Δ TV (male Wistar rats; 3200 μg/kg i.v.): -100% | Δ dp/dt (male Wistar rats; 3200 μg/kg i.v.): +4708 ± 430 mmHg/sec | Δ dp/dt % (male Wistar rats; 3200 μg/kg i.v.): +73 ± 9% | reflected tachycardia (in words) (male Wistar rats; all dose levels, i.v., rat): does not cause any reflected tachycardia | bradycardia / reduction of heart rate (in words) (male Wistar rats; all doses, i.v., rat): reduction of heart rate (HR), at all doses | action on the heart inotropism (in words) (male Wistar rats; i.v., rat): a constant stimulating action on the heart inotropism | hypotensive effect with respect to guanido-I (in words) (male Wistar rats; i.v., rat, vs guanido-I): higher pharmacological power as to hypotensive effect | effects on AP, AF, RF and TV (in words) (male Wistar rats; i.v., increase at 50-100 or 50-200 μg/kg, decrease up to 3,200 μg/kg): biphasic effects on AP, AF, RF and TV | cardiovascular responses after previous treatment with Hexameton (cardiovascular responses; previous treatment with Hexameton (ganglioplegic)): caused an increase in the cardiovascular responses | cardiovascular responses to acetylcholine and isoproterenol after previous treatment (cardiovascular responses; previous treatment with diguanido-II, agonists i.v., linear with agonist dose): increased the cardiovascular responses to administration, through i.v. route, of acetylcholine and isoproterenol | cardiovascular responses to nor-adrenaline and adrenaline after previous treatment (cardiovascular responses; previous treatment with diguanido-II, hypertensive doses of agonists): decreased the cardiovascular responses induced by hypertensive doses of nor-adrenaline and of adrenaline
